22 compounds from patent US5965539A, “Inhibitors of prenyl transferases” (Univeristy of Pittsburgh, priority 1996, dated 1999) can be followed below.

Assay type in all cases: biochemical
The target in assay [1] is T1, FTase (Homo sapiens, UniProt P49356).
T1 construct: FTase and GGTase I activities from 60,000×g supernatants of human Burkitt lymphoma (Daudi) cells; endogenous in cells; host or cells: human Burkitt lymphoma (Daudi) cells, 60,000xg supernatant (partially purified)
Description: FTase activity assay: transfer of [3H]farnesyl from FPP to recombinant H-Ras-CVLS, Daudi 60,000xg supernatant. The following applies: for GG/F: ratio GGTase I IC50 / FTase IC50; for Selectivity: FTase over GGTase I. How it is done:
FTase and GGTase I activities from 60,000×g supernatants of human Burkitt lymphoma (Daudi) cells (ATCC, Rockville, Md., USA) were assayed as described previously for FTase (41). Briefly, 100 μg of the supernatant was incubated in 50 mM Tris, pH 7.5, 50 μM ZnCl2, 20 mM KCl and 1 mM dithiothreitol (DTT).
Human Burkitt lymphoma (Daudi) cells (ATCC, Rockville, Md.) were grown in suspension in RPMI 1640 medium containing 10% fetal bovine serum (FBS) and 1% Pen-Strep in a humidified 10% CO2 incubator at 37° C. The cells were harvested and sonicated in 50 mM Tris, pH 7.5, 1 mM EDTA, 1 mM EGTA, 25 μg/ml leupeptin, 1 mM phenylmethylsulfonyl fluoride. Homogenates were then spun at 12,000×g and the resulting supernatant further spun at 60,000×g. The supernatant was assayed for both FTase and GGTase I. Briefly, 100 μg of the supernatants was incubated in 50 mM Tris, pH 7.5, 50 μM ZnCl2, 20 mM KCl, 3 mM MgCl2 and 1 mM DTT. […] FPP (625 nM; 16.3 Ci/mmol). For GGTase assays, the reaction was also incubated for 30 minutes at 37° C. but with recombinant H-Ras-CVLL (5 μM) and [^3 H] GGPP (525 nM; 19.0 Ci/mmol). The reaction was stopped and passed through glass fiber filters to separate free and incorporated label. For inhibition studies, the peptidomimetics were premixed with FTase or GGTase I prior to adding the remainder of the reaction mixture. […] Recombinant H-Ras-CVLL was prepared from bacteria (32).
FTase and GGTase I activities from 60,000×g supernatants of human Burkitt lymphoma (Daudi) cells (ATCC, Rockville, Md.) were assayed exactly as described previously for FTase (41).

Another assay concerns the target T2, GGTase I (Homo sapiens, UniProt P53609).
T2 construct: FTase and GGTase I activities from 60,000×g supernatants of human Burkitt lymphoma (Daudi) cells; endogenous in cells; host or cells: human Burkitt lymphoma (Daudi) cells, 60,000xg supernatant (partially purified)
Description: GGTase I activity assay: transfer of [3H]geranylgeranyl to recombinant H-Ras-CVLL, Daudi 60,000xg supernatant. How it is done: FTase and GGTase I activities from 60,000×g supernatants of human Burkitt lymphoma (Daudi) cells (ATCC, Rockville, Md., USA) were assayed as described previously for FTase (41). Briefly, 100 μg of the supernatant was incubated in 50 mM Tris, pH 7.5, 50 μM ZnCl2, 20 mM KCl and 1 mM dithiothreitol (DTT). The reaction was incubated at […] for 30 min with recombinant Ha-Ras-CVLS (11 μM) and [^3 H]FPP (625 nM; 16.3 Ci/mmol) for FTase, and recombinant Ha-Ras-CVLL (5 μM) and [^3 H]geranylgeranylpyrophosphate (525 nM; 19.0 Ci/mmol) for GGTase I. The peptidomimetics were mixed with FTase and GGTase before adding to the reaction mixture.
Human Burkitt lymphoma (Daudi) cells (ATCC, Rockville, Md.) were grown in suspension in RPMI 1640 medium containing 10% fetal bovine serum (FBS) and 1% Pen-Strep in a humidified 10% CO2 incubator at 37° C. The cells were harvested and sonicated in 50 mM Tris, pH 7.5, 1 mM EDTA, 1 mM EGTA, 25 μg/ml leupeptin, 1 mM phenylmethylsulfonyl fluoride. Homogenates were then spun at 12,000×g and the resulting supernatant further spun at 60,000×g. The supernatant was assayed for both FTase and GGTase I. Briefly, 100 μg of the supernatants was incubated in 50 mM Tris, pH 7.5, 50 μM ZnCl2, 20 mM KCl, 3 mM MgCl2 and 1 mM DTT. For FTase assays, the reaction was incubated at 37° C. for 30 minutes with recombinant H-Ras-CVLS (11 μM) and [^3 H] FPP (625 nM; 16.3 Ci/mmol). For GGTase assays, the reaction was also incubated for 30 minutes at 37° C. but with recombinant H-Ras-CVLL (5 μM) and [^3 H] GGPP (525 nM; 19.0 Ci/mmol). The reaction was stopped and passed through glass fiber filters to separate free and incorporated label. For inhibition studies, the peptidomimetics were premixed with FTase or GGTase I prior to adding the remainder of the reaction mixture. Recombinant H-Ras-CVLS was prepared as described previously (26) from bacteria (31). Recombinant H-Ras-CVLL was prepared from bacteria (32).
FTase and GGTase I activities from 60,000×g supernatants of human Burkitt lymphoma (Daudi) cells (ATCC, Rockville, Md.) were assayed exactly as described previously for FTase (41). Inhibition studies were performed by determining the ability of Ras CAAX peptidomimetics to inhibit the transfer of [^3 H]-farnesyl and [^3 H]-geranylgeranyl from [^3 H]FPP and [^3 H]GGPP to H-ras-CVLS and H-Ras-CVLL, respectively (41).

The target in assay [2] is T1, FTase. Description: Peptidomimetics farnesylation assay (silica gel TLC). The following applies: Table 4; substrate for farnesylation, TLC. On the procedure: The ability of human Burkitt lymphoma (Daudi) FTase to farnesylate peptides and peptidomimetics was determined as described previously (34, 35). Briefly, 25 μl of reaction mixture containing 50 μg of 60,000×g supernatants and 20 μM peptidomimetic in 50 mM Tris, pH 7.5, 50 μM ZnCl2, 20 mM KCl, 3 mM MgCl2, 1 mM DTT and 0.2% octylβ-D-glucoside was incubated for 30 minutes at 37° C., then spotted onto silica gel G TLC sheets (20×20 cm, Brinkmann Instruments), and developed with n-propanol/5 N ammonium hydroxide/water (6:1:1). The dried sheets were sprayed with En^3 Hance (DuPont NEN) and exposed to x-ray film for detection of [^3 H] farnesylated products.

The mark [3] stands for this setting: Table 1, read-out: GGTase I IC50.
Where [4] appears, read: Table 4, read-out: GGTase-I IC50.

Read-outs that look alike come from different tables or passages of the source.

T1 sequence (P49356 whole entry): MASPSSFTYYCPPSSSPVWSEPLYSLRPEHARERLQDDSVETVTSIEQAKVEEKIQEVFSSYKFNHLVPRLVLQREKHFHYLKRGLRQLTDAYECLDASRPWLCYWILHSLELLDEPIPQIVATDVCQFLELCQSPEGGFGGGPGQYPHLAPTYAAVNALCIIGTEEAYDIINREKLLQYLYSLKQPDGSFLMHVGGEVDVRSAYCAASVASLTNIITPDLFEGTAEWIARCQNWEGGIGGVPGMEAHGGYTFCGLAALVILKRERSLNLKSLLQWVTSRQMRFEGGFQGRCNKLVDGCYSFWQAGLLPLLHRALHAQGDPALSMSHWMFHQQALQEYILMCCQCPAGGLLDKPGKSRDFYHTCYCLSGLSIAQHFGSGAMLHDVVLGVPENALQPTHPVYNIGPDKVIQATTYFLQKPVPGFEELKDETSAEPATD
T2 sequence (P53609 whole entry): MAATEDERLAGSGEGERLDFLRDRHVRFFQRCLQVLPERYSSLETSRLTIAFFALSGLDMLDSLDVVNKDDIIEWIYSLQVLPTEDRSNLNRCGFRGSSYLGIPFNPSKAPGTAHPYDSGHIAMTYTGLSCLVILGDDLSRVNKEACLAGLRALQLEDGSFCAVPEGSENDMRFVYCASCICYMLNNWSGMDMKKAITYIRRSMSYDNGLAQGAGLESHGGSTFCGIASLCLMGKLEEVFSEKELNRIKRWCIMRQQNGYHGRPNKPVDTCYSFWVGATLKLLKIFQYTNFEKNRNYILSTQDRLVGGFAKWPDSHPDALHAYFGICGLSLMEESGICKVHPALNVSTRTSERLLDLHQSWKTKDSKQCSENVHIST

By IC50 is commonly meant the concentration that inhibits the measured activity by half. Regarding “HCl-cysteine-4-aminobenzoyl methionine [FTI-232]”, on FTase [1], the “selectivity for FTase over GGTase I” value is given as 10 fold. Further, at FTase [1] (Table 1), the GG/F is listed as 6. For the same compound, the IC50 worked out at 0.213 µM at FTase [1] (Table 1, read-out: FTase IC50); 0.15 µM on FTase [1] (Table 4, read-out: FTase IC50); 1.2 µM on GGTase I (setting [3]); 1.5 µM at GGTase I (setting [4]). The Selectivity on FTase [1] (Table 4) is 10.

Regarding `COc1cc(C(=O)NC(CCSC)C(=O)O)ccc1NC(=O)C(N)CS.O=C(O)C(F)(F)F` (stereo not shown) [FTI-261, TFA.Cysteine-4-amino-3-methoxybenzoyl methionine], the GG/F at FTase [1] (Table 1) is 20. The IC50 at FTase [1] (Table 1, read-out: FTase IC50) was 2.55 µM; at GGTase I (setting [3]), 50 µM.

Turning to “TFA.cysteine-4-amino-1-naphthoyl methionine [FTI-270]”, the GG/F on FTase [1] (Table 1) was found to be 22. In addition, the IC50 on FTase [1] (Table 1, read-out: FTase IC50) came to 0.143 µM; at GGTase I (setting [3]), 3.15 µM.

On to `NCC(N)C(=O)Nc1ccc(-c2cccc(C(=O)O)c2)cc1` (stereo not shown) [FTI-291, 4-(3-Aminoalanyl)-amino-3'-carboxybiphenyl], for which, at FTase [1] (Table 4, read-out: FTase IC50), the IC50 was 210 µM.

As for “4-(Vinylsulfonyl-3-aminoalanyl)-amino-3'-carboxybiphenyl [FTI-296]”, the Selectivity at FTase [1] (Table 4) was > 2. Further, the IC50 at FTase [1] (Table 4, read-out: FTase IC50) was 430 µM; on GGTase I (setting [4]), > 1000 µM.

In the case of `CSCC[C@H](NC(=O)c1ccc(NC(=O)[C@@H](N)CS)cc1-c1cc(C)cc(C)c1)C(=O)O.O=C(O)C(F)(F)F` [FTI-275, TFA.Cysteine-4-amino-2-(3,5-dimethylphenyl)benzoyl methionine], the GG/F on FTase [1] (Table 1) came out at 1. The IC50 at FTase [1] (Table 1, read-out: FTase IC50) worked out at 0.405 µM; on GGTase I (setting [3]) it was 0.4 µM.

As for `N[C@@H](CS)CNc1ccc(-c2ccccc2)cc1` [FTI-268, 4-N-[2(R)Amino-3-Mercaptopropyl]aminobiphenyl], on FTase [1] (Table 4), the Selectivity came out at 93. For the same compound, the IC50 was 1.07 µM on FTase [1] (Table 4, read-out: FTase IC50) and > 100 µM on GGTase I (setting [4]). The Substrate entry on FTase [2] is recorded as “no”.

Take `COc1cc(NC[C@@H](N)CS)ccc1-c1cccc(C(=O)O)c1` [FTI-281, 2-Methoxy-4-N-[2(R)-amino-3-mercaptopropyl]amino-3'-carboxybiphenyl]: at FTase [1] (Table 4), the Selectivity worked out at 1090. For the same compound, the IC50 at FTase [1] (Table 4, read-out: FTase IC50) is 0.04 µM; on GGTase I (setting [4]) it was 43.6 µM.

`N[C@@H](CS)CNc1ccc(-c2cccc(C(=O)O)c2)c(-c2ccccc2)c1` [FTI-289, red.Cys-4-amino-2-phenyl-3'-carboxybiphenyl]: the Selectivity at FTase [1] (Table 4) is given as 40. Besides, the IC50 at FTase [1] (Table 4, read-out: FTase IC50) was 0.016 µM; at GGTase I (setting [4]), 0.643 µM.

Regarding “TFA.cysteine-4-amino-3-methylbenzoyl methionine [FTI-260]”, the GG/F at FTase [1] (Table 1) is given as 11. For the same compound, the IC50 at FTase [1] (Table 1, read-out: FTase IC50) came out at 0.825 µM; at GGTase I (setting [3]), 9 µM.

`CCS(=O)(=O)NCC(N)C(=O)Nc1ccc(-c2cccc(C(=O)O)c2)cc1` (stereo not shown) [FTI-295, 4-(Ethylsulfonyl-3-aminoalanyl)-amino-3'-carboxy-biphenyl]: on FTase [1] (Table 4), the Selectivity is listed as > 5. For the same compound, the IC50 was 200 µM on FTase [1] (Table 4, read-out: FTase IC50) and > 1000 µM on GGTase I (setting [4]).

As for `Cc1cccc(-c2ccc(NC[C@@H](N)CS)cc2-c2ccccc2)c1` [FTI-285, red.Cys-4-amino-2-phenyl-3'-methylbiphenyl], the Selectivity on FTase [1] (Table 4) is on record as 4. Besides, the IC50 at FTase [1] (Table 4, read-out: FTase IC50) stood at 2.08 µM; at GGTase I (setting [4]), 8.5 µM.

For `N[C@@H](CS)CNCc1cccc(-c2cccc(C(=O)O)c2)c1` [FTI-283, red.Cys-3-aminomethyl-3'-carboxybiphenyl], on FTase [1] (Table 4), the Selectivity is 3. Further, the IC50 is 11 µM at FTase [1] (Table 4, read-out: FTase IC50) and 35 µM on GGTase I (setting [4]).

Turning to `N[C@@H](CS)C(=O)Nc1ccc(-c2cccc(C(=O)O)c2)cc1` [FTI-278, Cysteinyl-4-amino-3'-carboxybiphenyl], the Selectivity on FTase [1] (Table 4) came out at 7. The IC50 on FTase [1] (Table 4, read-out: FTase IC50) was determined as 13.5 µM; on GGTase I (setting [4]), 100 µM.

For the compound `N[C@@H](CS)CNc1ccc(-c2cccc(-c3nnn[nH]3)c2)cc1` [FTI-2102, red.Cys-4-amino-3'-tetrazolylbiphenyl], the Selectivity on FTase [1] (Table 4) worked out at 187. The IC50 is 0.03 µM on FTase [1] (Table 4, read-out: FTase IC50) and 5 µM on GGTase I (setting [4]).

As for `CC(C)C[C@H](NC(=O)c1ccc(NC[C@@H](N)CS)cc1-c1ccccc1)C(=O)O` [GGTI-287, 4-[2(R)-amino-3-mercaptopropyl]amino-2-phenylbenzoyl-(S)-leucine], the IC50 at FTase [1] (Table 5, read-out: In Vitro IC50 FTase) turned out to be 0.025 µM; on GGTase I (Table 5, read-out: In Vitro IC50 GGTase I), 0.005 µM; at GGTase I (read-out: GGTase I IC50), 0.005 µM. Besides, the “selectivity for GGTase I over FTase” value on GGTase I is listed as 5 fold.

On to `CCCOc1cc(NC[C@@H](N)CS)ccc1-c1cccc(C(=O)O)c1` [FTI-288, red.Cys-4-amino-2-OPr-3'-carboxybiphenyl], for which the Selectivity at FTase [1] (Table 4) stood at 59. The IC50 at FTase [1] (Table 4, read-out: FTase IC50) was 0.041 µM; on GGTase I (setting [4]), 2.38 µM.

Regarding `NC[C@H](N)CNc1ccc(-c2cccc(C(=O)O)c2)cc1` [FTI-292, (L)4(2,3-diaminopropyl)-amino-3'-carboxybiphenyl], on FTase [1] (Table 4, read-out: FTase IC50), the IC50 was determined as 60 µM.

Consider `COC(=O)C(CCSC)NC(=O)c1ccc(NC(=O)C(N)CS)cc1-c1ccccc1.Cl` (stereo not shown) [FTI-274, HCl.cysteine-4-amino-2-phenylbenzoyl methionine methyl ester], for which the GG/F on FTase [1] (Table 1) is recorded as 15. Further, the IC50 on FTase [1] (Table 1, read-out: FTase IC50) was 2.05 µM; on GGTase I (setting [3]), 30 µM.

As to `NCC(N)CNc1ccc(-c2cccc(C(=O)O)c2)cc1` (stereo not drawn) [FTI-282, (DL) 4-(2,3-diaminopropyl)-amino-3' carboxybiphenyl], at FTase [1] (Table 4), the Selectivity is > 2. Further, the IC50 at FTase [1] (Table 4, read-out: FTase IC50) was 50 µM.

For `N[C@@H](CS)CNc1ccc(-c2ccccc2C(=O)O)cc1` [FTI-273, 4-N-[2(R)-Amino-3-mercaptopropyl]amino-2'-carboxybiphenyl], at FTase [1] (Table 4), the Selectivity came out at 258. Further, the IC50 on FTase [1] (Table 4, read-out: FTase IC50) was found to be 0.543 µM; on GGTase I (setting [4]), 140 µM.

With `CSCC[C@H](NC(=O)c1ccc(NC(=O)[C@@H](N)CS)cc1-c1ccccc1)C(=O)O.O=C(O)C(F)(F)F` [FTI-272, TFA.Cysteine-4-amino-2-phenylbenzoyl methionine], the GG/F on FTase [1] (Table 1) is on record as 53. In addition, the IC50 on FTase [1] (Table 1, read-out: FTase IC50) is 0.005 µM; at GGTase I (setting [3]), 0.267 µM.
